# Laboratory results: patent publication US7288556B2, “Antiproliferative 1,2,3-thiadiazole compounds” (QLT Inc., priority 2000, dated 2007)
# Biological target: T1, integrin linked kinase (ILK1), full-length recombinant GST-ILK (Homo sapiens, UniProt Q13418)
# T1 construct: The target integrin linked kinase is a full-length recombinant protein expressed in sF9 insect cells by baculovirus infection; made in house; host or cells: Baculovirus; virus amplified in Sf9 cells, protein expressed in Hi5 insect cells
# T1 sequence (Q13418 1-452): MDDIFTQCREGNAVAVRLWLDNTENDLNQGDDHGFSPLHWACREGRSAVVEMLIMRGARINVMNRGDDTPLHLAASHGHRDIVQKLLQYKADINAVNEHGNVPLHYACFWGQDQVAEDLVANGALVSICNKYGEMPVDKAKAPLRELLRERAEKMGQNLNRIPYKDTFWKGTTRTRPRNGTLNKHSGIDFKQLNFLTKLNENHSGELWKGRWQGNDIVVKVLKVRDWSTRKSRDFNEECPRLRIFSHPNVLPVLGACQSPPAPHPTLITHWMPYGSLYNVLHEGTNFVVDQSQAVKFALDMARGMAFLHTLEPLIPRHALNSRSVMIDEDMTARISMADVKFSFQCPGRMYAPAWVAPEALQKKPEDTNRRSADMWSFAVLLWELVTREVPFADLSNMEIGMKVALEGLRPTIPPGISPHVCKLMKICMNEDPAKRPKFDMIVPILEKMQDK
# Test: Integrin linked kinase inhibition assay (radioactive phosphate incorporation, scintillation counting)
# Type: biochemical
# Conditions: not given
# Experimental: Compounds are screened using a series of disease related kinase targets, such as integrin linked kinase-1. Synthesized libraries of compounds are tested against each of the targets to find compounds that inhibit one of the targets preferentially.
# Inhibition of the targets is measured by scintillation counting; the incorporation of radioactive phosphate onto a specific substrate which is immobilized onto a filter paper at the end of the assay. To provide meaningful measurements of inhibition, the assays are performed both in the absence and presence of specific and known inhibitors, and the amount of incorporated radioactivity is compared to provide a baseline measurement.
# Inhibition Assay: Compounds listed in Table 1 were lyophilized and stored at −20° C. Stock solutions were made by weighing out the compounds and dissolving them in dimethyl sulfoxide (DMSO) to a standard concentration, usually 20 mM, and stored at −20° C. […] Diluted 100% DMSO was used as a negative control.
# A volume of 5 μl of each compound dilution were robotically pipetted to Costar serocluster plates maintaining the same plate format. All assays consisted of the following volumes: • 5 μl diluted compound • 10 μl enzyme preparation • 5 μl substrate • 5 μl assay ATP and were then incubated 15 min at room temperature.
# From each reaction, 10 μl of reaction mix was spotted onto Millipore Multiscreen-PH opaque plates and washed 2×10 min in 1% phosphoric acid. The plates were dried for at 40° C. for 30 min, then the substrate phosphate complexes were quantitated by scintillation counting. These Millipore plates are in a 96 well format with immobilized P81 phosphocellulose membranes. Both the phosphorylated and non-phosphorylated form of the substrate bind to the membrane while ATP (unincorporated phosphate) is removed in the subsequent wash steps.
# Integrin Linked Kinase: The target integrin linked kinase is a full-length recombinant protein expressed in sF9 insect cells by baculovirus infection. The ILK1 substrate is […]-amide.
# Recombinant ILK protein was expressed using cultured insect cells and a baculovirus expression system.
# A large scale plasmid preparation of the resulting transfer construct was made using a Qiagen Plasmid Midi Kit. This ILK transfer construct was then co-transfected with BaculoGold DNA (Pharmingen) into Sf9 insect cells (Invitrogen) and a high titre preparation of GST-ILK recombinant baculovirus was produced by amplification in Sf9 cells. Liter scale expression of GST-ILK recombinant protein was done in 1000 ml spinner flasks (Bellco) by infection of Hi5 insect cells (Invitrogen) grown in Ex-Cell 400 Serum Free Media (JRH Biosciences) at a multiplicity of infection of approximately 5. The cells were harvested three days after infection and lysed in Hypotonic Lysis Buffer (HLB; 10 mM imidazole, 5 mM EDTA, 0.1% β-mercaptoethanol, 10 ug/ml PMSF, 1 mM benzamidine) by sonication. The lysate was centrifuged at 10,000×g for 20 min and the supernatant was discarded. The pellet was washed twice in HLB and then washed twice in High Salt Buffer (HSB; 500 mM NaCl, 10 mM imidazole, 5 mM EDTA, 0.1% β-mercaptoethanol, 10 ug/ml PMSF, 1 mM benzamidine). The pellet was then resuspended in DNAse-ATP Buffer (DAB; 10 mM MgCl2, 1 mM MnCl2, β-methyl aspartic acid, 2 mM NaF, 0.55 mg/ml ATP, 1 ug/ml DNAse I, 1% NP-40, 10 mM imidazole, 5 mM EDTA, 0.1% β-mercaptoethanol, 10 ug/ml PMSF, 1 mM benzamidine) and stirred for 30 min at room temperature, and then centrifuged at 10,000×g for 20 min. The pellet was resuspended in High Salt Detergent Buffer (HDB; 1% NP-40, 1% Triton X-100, 500 mM NaCl, 10 mM imidazole, 5 mM EDTA, 0.1% β-mercaptoethanol, 10 ug/ml PMSF, 1 mM benzamidine), stirred for 30 min at room temperature, and then centrufuged at 10,000×g for 20 min. The pellet was then washed once in each of HDB, HSB, and HLB, centrifuging at 10,000×g each time. Finally, the pellet was resuspended in HLB.
row,Structure (SMILES),IC50
1,"NC(=O)c1nnsc1Nc1ccc(Br)cc1 [KP 27296, 5-(4-Bromophenylamino)-[1,2,3]thiadiazole-4-carboxylicacid amide]",> 20 µM
2,"NC(=O)c1nnsc1NC1CCCCC1 [KP 27300, 5-Cyclohexylamino-[1,2,3]thiadiazole-4-carboxylicacid amide]",> 20 µM
3,"NC(=O)c1nnsc1NCc1ccccc1 [KP 27302, 5-Benzylamino-[1,2,3]thiadiazole-4-carboxylicacid amide]",> 20 µM
4,"CCNc1snnc1C(N)=O [KP 27304, 5-Ethylamino-[1,2,3]thiadiazole-4-carboxylicacid amide]",> 20 µM
5,"CCCCCCNc1snnc1C(N)=O [KP 27305, 5-Hexylamino-[1,2,3]thiadiazole-4-carboxylicacid amide]",> 20 µM
6,"CN(c1ccccc1)c1snnc1C(N)=O [KP 27420, 5-(Methylphenylamino)-[1,2,3]thiadiazole-4-carboxylicacid amide]",> 20 µM
7,"CC(=O)NC(=O)c1nnsc1Nc1ccccc1 [KP 27421, 5-Phenylamino-[1,2,3]thiadiazole-4-carboxylicacid acetylamide]",> 20 µM

# Next, values leading:
row,IC50,Structure (SMILES)
1,> 20 µM,"COc1ccc(Nc2snnc2C(N)=O)cc1 [KP 27297, 5-(4-Methoxyphenylamino)-[1,2,3]thiadiazole-4-carboxylicacid amide]"
2,> 20 µM,"CCOC(=O)Nc1snnc1C(N)=O [KP 27298, (4-Carbamoyl-[1,2,3]thiadiazol-5-yl)-carbamicacid ethyl ester]"
3,> 20 µM,"NC(=O)c1nnsc1NC12CC3CC(CC(C3)C1)C2 [KP 27299, 5-(Adamantan-1-ylamino)-[1,2,3]thiadiazole-4-carboxylicacid amide]"
4,> 20 µM,"NC(=O)c1nnsc1NC(=O)c1ccccc1 [KP 27303, 5-Benzoylamino-[1,2,3]thiadiazole-4-carboxylicacid amide]"
5,> 20 µM,"NCc1nnsc1Nc1ccccc1 [KP 27422, (4-Aminomethyl-[1,2,3]thiadiazol-5-yl)phenylamine]"
6,> 20 µM,"O=C(O)c1nnsc1Nc1ccccc1 [KP-27271, 5-Phenylamino-[1,2,3]thiadiazole-4-carboxylicacid]"

# System: chick chorioallantoic membrane
# Test: Chick chorioallantoic membrane (CAM) developmental angiogenesis assay
# Type: in vivo, chicken
# Conditions: 50 μm
# Experimental: e. Chick chorioallantoic membrane assay (CAM assay): was performed on fertilized chicken eggs and used as a test for angiogenesis inhibition.
# Approximately 4 dozen fertilized eggs were sprayed with 70% ETOH and placed in a 180 egg incubator (GQF Sportsman incubator). The eggs were incubated “rounded-side down” and were fully rotated along the vertical axis every 30 minutes at 37° C. under 90% relative humidity.
# After 4 days, the eggs were placed upside down (round side up) for 5-10 minutes, before a round hole approximately 3 centimeters in diameter was created above the pointed end or “air hole” of the egg using sterile blunt-ended forceps (“deshelling”). The inner membrane was also removed, and the embryo was visible through this opening. A small portion of the outer membrane was then carefully removed using fine-tipped forceps in order to expose the CAM. Sterile Parafilm was placed over the de-shelled opening to create an airtight seal. The eggs were returned to the incubator (with no rotation) for 2 days.
# Viable eggs were then treated with control and inhibitor compounds. Gelfoam™ gelatin sterile sponge (Upjohn) or 1-2 mm discs of methylcellulose saturated with physiological saline, buffer or an appropriate dilution of the compounds under investigation. The Gelfoam™ fragments of methylcellulose discs were added directly to the surface of the developing CAM. Care was taken not to add the treatment directly over a large vessel. The shells were marked in 3 places to aid in stereotactic localization of the treatment sponge or disc. An average of 6 eggs were included for each experimental condition. The treated eggs were returned to the incubator for 2 days.
# The eggs were then assessed for blood vessel growth inhibition. Photomicrographs for records and visual examination were made using a Nikon dissecting microscope with an attached Nikon 35-mm camera body.
row,Structure (SMILES),% Inhibition
1,"NC(=O)c1nnsc1Nc1cccc2ccccc12 [KP 27301, 5-(Naphthalen-1-ylamino)-[1,2,3]thiadiazole-4-carboxylicacid amide]",100%
2,"CCNc1snnc1C(N)=O [KP 27304, 5-Ethylamino-[1,2,3]thiadiazole-4-carboxylicacid amide]",60%

# System: not given
# Test: not given
# Conditions: not given
row,melting point,Structure (SMILES)
1,194 to 196 °C,"CN(c1ccccc1)c1snnc1C(N)=O [KP 27420, 5-(Methylphenylamino)-[1,2,3]thiadiazole-4-carboxylicacid amide]"
